Source: PubChem BioAssay (NCI)
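Assay format: 96-well plates, 48-hour exposure. GI50 is the concentration that inhibits growth by half. Definition used: TGI = concentration required for complete inhibition of growth.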

Columns and labels:
Experiment in all cases: NCI tumour cell line growth inhibition, 48 h
IGROV1 ovarian = test system: IGROV1 ovarian
SF-268 CNS = test system: SF-268 CNS
RPMI-8226 leukemia = test system: RPMI-8226 leukemia
SN12C renal = test system: SN12C renal
A549 NSCLC = test system: A549 NSCLC
SF-295 CNS = test system: SF-295 CNS
SNB-75 CNS = test system: SNB-75 CNS
HOP-62 NSCLC = test system: HOP-62 NSCLC
NCI-H226 lung = test system: NCI-H226 lung
SR leukemia = test system: SR leukemia

Compound	TGI (IGROV1 ovarian) [µM]	TGI (SF-268 CNS) [µM]	TGI (RPMI-8226 leukemia) [µM]	TGI (SN12C renal) [µM]	TGI (A549 NSCLC) [µM]	TGI (SF-295 CNS) [µM]	TGI (SNB-75 CNS) [µM]	TGI (HOP-62 NSCLC) [µM]	TGI (NCI-H226 lung) [µM]	GI50 (IGROV1 ovarian) [µM]	GI50 (SF-268 CNS) [µM]	GI50 (RPMI-8226 leukemia) [µM]	GI50 (SN12C renal) [µM]	GI50 (A549 NSCLC) [µM]	GI50 (SF-295 CNS) [µM]	GI50 (HOP-62 NSCLC) [µM]	GI50 (NCI-H226 lung) [µM]	GI50 (SNB-75 CNS) [µM]	TGI (SR leukemia) [µM]	GI50 (SR leukemia) [µM]
Cc1cc(=O)oc2cc(OCc3nc4ccccc4c(=O)[nH]3)ccc12	> 100	> 100	> 100	> 100	> 100	> 100	> 100	> 100	> 100	–	–	–	–	–	–	–	–	–	–	–
Cc1ccc(/C=C2\CCCC\C2=N\O)cc1	> 100	> 100	–	> 100	> 100	> 100	81.3	> 100	–	–	–	–	–	–	–	–	–	–	–	–
O=C1CCCC1NC(=O)C(F)(F)F (configuration not stated)	> 100	> 100	–	> 100	> 100	> 100	> 100	> 100	> 100	–	–	–	–	–	–	–	–	–	–	–
CC(C)C[C@@H]1NC(=O)[C@@H]2CCCN2C(=O)[C@@H]2CCCN2C(=O)[C@H](CC(C)C)NC(=O)[C@H](CO)NC(=O)[C@H](CCCCN)NC(=O)[C@H]([C@H](C)O)NC(=O)[C@@H]2CCCC[C@@H](NC1=O)C(=O)N[C@@H](Cc1ccccc1)C(=O)N1CCC[C@H]1C(=O)N[C@@H](CC(=O)O)C(=O)NCC(=O)N[C@@H](CCCN=C(N)N)C(=O)N2	> 50	> 50	> 50	> 50	> 50	> 50	–	> 50	> 50	> 50	> 50	> 50	> 50	> 50	> 50	> 50	> 50	–	–	–
C/C(=C\CC[C@]1(C)OC(C)(C)OC1CC/C(C)=C/CO[Si](c1ccccc1)(c1ccccc1)C(C)(C)C)CC/C=C/CO[Si](C)(C)C(C)(C)C (some centres not stated)	> 100	> 100	> 100	> 100	> 100	> 100	> 100	> 100	> 100	–	–	–	–	–	–	–	–	–	–	–
CC1=NN(C(=O)c2ccc(Cl)cc2)C(=O)/C1=C/c1ccc(O)cc1	> 100	> 100	> 100	> 100	> 100	> 100	–	> 100	> 100	–	–	–	–	–	–	–	–	–	–	–
COc1ccc2c(c1)CC1c3c(cc4c(c3-2)OCO4)CCN1C (configuration not stated)	85.8	–	64.2	> 100	61	50	56.9	96.7	64.9	–	–	–	–	–	–	–	–	–	–	–
C=C(C)[C@H](O)C(O)CC(C)[C@@H]1CCC23CC12CCC1[C@@]2(C)CCC(OC(C)=O)C(C)(C)C2CC(OC2OC(COC(C)=O)C(O)C(O)C2O)[C@]13C (some centres not stated)	9.54	11	6.29	13	12.2	12.5	9.03	13.2	11.2	–	–	–	–	–	–	–	–	–	–	–
CC12CC3CC(C1)CC(N=[N+]=[N-])(C3)C2	> 100	–	> 100	> 100	> 100	> 100	> 100	> 100	> 100	–	–	–	–	–	–	–	–	–	–	–
C[C@@H]1C[C@@]2(O[C@@H]2C)C(=O)O[C@@H]2CCN3CC=C(COC(=O)[C@]1(C)O)[C@H]23	> 100	> 100	> 100	> 100	> 100	> 100	> 100	–	> 100	–	–	–	–	–	–	–	–	–	–	–
CC1/C(=N/Nc2ccc([N+](=O)[O-])cc2)CC2C3(C)CCC2(C(C)C(=O)O)C(=O)C13 (configuration not stated)	> 100	> 100	24	> 100	> 100	> 100	> 100	> 100	–	> 100	33.5	2.95	60.9	5.5	4.74	95	–	> 100	–	–
CCOC(=O)NC(=O)c1cn(CCN2CCN(C(=O)NCCCCCCNC(=O)N3CCN(CCn4cc(C(=O)NC(=O)OCC)c(=O)n(CCN(CC)CC)c4=O)CC3)CC2)c(=O)n(CCC(CC)CC)c1=O	> 100	> 100	> 100	> 100	> 100	> 100	> 100	> 100	–	–	–	–	–	–	–	–	–	–	> 100	–
N#CN1CCC=C(c2cc3ccccc3[nH]2)C1	> 448	> 448	> 448	> 448	> 448	> 448	–	> 448	> 448	–	–	–	–	–	–	–	–	–	> 448	–
COc1ccccc1/C=N/N=C(\N)NO	> 100	> 100	> 100	> 100	81.1	12.3	–	76.6	90.7	–	–	–	–	–	–	–	–	–	> 100	–
CCOC(=O)C#Cc1c(CC(=O)OCC)nnn1[C@H]1O[C@@H](CO)[C@@H]2OC(C)(C)O[C@@H]21	36.6	34.6	9.06	9.01	41.9	> 100	22.9	34.2	3.26	16.1	16.3	3.45	3.06	23.7	43.6	18.2	1.79	10.7	–	–
COc1cc([C@@H]2OC(=O)C3C2C(=O)O[C@H]3c2cc(OC)c(OC)c(OC)c2)cc(OC)c1OC (some centres not stated)	> 100	> 100	> 100	> 100	> 100	> 100	> 100	> 100	> 100	–	–	–	–	–	–	–	–	–	–	–
CC1SC(=O)SC1C (configuration not stated)	> 100	> 100	> 100	> 100	> 100	> 100	> 100	> 100	–	–	–	–	–	–	–	–	–	–	> 100	–
OCCNCCNc1c2ccccc2nc2oc3ccccc3c12	38.3	28.3	21.6	57.7	35.7	29.6	27.1	20.2	62	7.3	7.33	4.76	8.86	10.3	6.02	6.62	20.5	13.2	–	–
CN1CCn2c(c(Sc3ccc(C(=O)NO)cc3)c3ccccc32)C1=O	3.85	3.85	> 24.5	5.58	13	–	2.99	3.87	3.9	1.82	1.92	1.24	2.13	3.45	–	1.88	1.78	1.27	> 100	2.65

Compound	TGI (IGROV1 ovarian) [µM]	TGI (SF-268 CNS) [µM]	TGI (RPMI-8226 leukemia) [µM]	TGI (SN12C renal) [µM]	TGI (A549 NSCLC) [µM]	TGI (SF-295 CNS) [µM]	TGI (SNB-75 CNS) [µM]	TGI (HOP-62 NSCLC) [µM]	TGI (NCI-H226 lung) [µM]	GI50 (IGROV1 ovarian) [µM]	GI50 (SF-268 CNS) [µM]	GI50 (RPMI-8226 leukemia) [µM]	GI50 (SN12C renal) [µM]	GI50 (A549 NSCLC) [µM]	GI50 (SF-295 CNS) [µM]	GI50 (HOP-62 NSCLC) [µM]	GI50 (NCI-H226 lung) [µM]	GI50 (SNB-75 CNS) [µM]	TGI (SR leukemia) [µM]	GI50 (SR leukemia) [µM]
Clc1ccc(SCCCCCCCCCCSc2ccc(Cl)cc2)cc1	> 100	> 100	> 100	> 100	> 100	> 71.4	> 100	> 100	> 100	–	–	–	–	–	–	–	–	–	–	–
COc1cc(-c2oc3c(OC)c(O)c(OC)c(O)c3c(=O)c2OC)ccc1O	65.9	–	> 100	> 100	> 100	> 100	–	61.4	> 100	–	–	–	–	–	–	–	–	–	> 100	–
O=C1C[C@H]2CC3(CC[C@H]2CN1)OCCO3	> 100	> 100	> 100	> 100	> 100	> 100	> 100	> 100	–	–	–	–	–	–	–	–	–	–	–	–
COc1cc(C(=O)CC2(O)C(=O)Nc3c(Cl)cc(Cl)cc32)ccc1O (configuration not stated)	–	> 100	> 100	> 100	> 100	> 100	93	> 100	> 100	–	–	–	–	–	–	–	–	–	–	–
N=C(N)c1ccc(-c2ccc(-c3cccs3)s2)nc1	3.56	10.7	2.78	5.38	1.28	–	4.52	5.17	15.8	1.76	2.74	0.434	1.68	0.023	–	1.94	2	1.78	5.47	1.27
c1ccc(SC(CCCCOC2CCCCO2)Sc2ccccc2)cc1 (configuration not stated)	> 100	> 100	> 100	> 100	> 100	> 100	> 100	> 100	–	–	–	–	–	–	–	–	–	–	–	–
Cc1ccc(S(=O)(=O)c2c3[nH]c4ccccc4nc3n3c2nc2ccccc23)cc1	> 100	> 100	> 100	> 100	> 100	–	> 100	> 100	–	–	–	–	–	–	–	–	–	–	> 100	–
CSC1C(=O)c2ccccc2/C(=N/Nc2nc3ccccc3s2)C1C (configuration not stated)	4.22	19.1	> 50	14.2	44.4	> 50	–	> 50	–	0.648	7.96	7.44	7.26	16	19.7	14.4	–	–	2.52	0.843
Cn1c(=O)c(C(=O)NC(=O)OCc2ccccc2)cn(CCSCCOC(=O)NCCCCCCNC(=O)OCCSCCn2cc(C(=O)NC(=O)OCc3ccccc3)c(=O)n(C)c2=O)c1=O	> 100	> 100	> 100	> 100	> 100	–	48.9	> 100	> 100	–	–	–	–	–	–	–	–	–	–	–
O=C(N/C(=C\c1ccc(Oc2ccc(Cl)c(Cl)c2)cc1)c1nc2ccccc2[nH]1)c1ccccc1	–	37.1	–	35.5	54.4	29	–	–	–	–	–	–	–	–	–	–	–	–	85	–
N#CC1=C(N)Oc2c(sc3c(F)cccc23)C1c1ccc(F)cc1 (configuration not stated)	14.7	15.3	14.7	15.8	19.1	6.28	14.9	19.2	15.8	0.621	1.13	1.05	1.28	1.05	0.364	0.76	1.71	0.338	–	–
CN(C)CCNC(=O)c1cc2c3ccccc3[nH]c2c2ncccc12	19.1	23.7	22.7	39.2	36.9	–	21.4	37.5	39.6	1.14	6.37	6.01	7.36	6.46	–	11.1	9.8	5.44	13.2	3.34
CS/C(c1ccccc1)=[N+](/C)[O-]	> 100	> 100	> 87.1	> 100	> 100	> 100	> 100	> 100	–	–	–	–	–	–	–	–	–	–	47.6	–
CC1=C(C(=O)Nc2ccc(F)c(Cl)c2)C(c2cccc(Oc3ccccc3)c2)NC(=O)N1 (configuration not stated)	24.2	40.3	26.3	32.8	30.2	57	20.4	29.2	37.4	10.7	15.6	8.51	16.1	14.1	22.1	15.4	16.2	7.53	–	–
CC1=Nn2c(nnc2-c2ccc(N)cc2)NC(C)(C)C1	> 100	> 100	> 100	–	> 100	> 100	–	> 100	> 100	–	–	–	–	–	–	–	–	–	–	–
CCOc1ccccc1NC(=O)C1=C(C)NC(C)=C(C(=O)Nc2ccccc2OCC)C1c1ccc(NC(C)=O)cc1	> 100	> 100	> 100	> 100	> 100	71.5	65.6	49	> 100	–	–	–	–	–	–	–	–	–	–	–
O=C(/C=C1/NC(=O)CS1)Nc1ccccc1	> 100	> 100	> 100	> 100	> 100	> 100	> 100	> 100	> 100	–	–	–	–	–	–	–	–	–	–	–
O=C1c2c(nc3ccccc3c2-c2ccccc2)CN1Nc1ccccc1	> 100	> 100	> 100	> 100	> 100	–	–	> 100	> 100	–	–	–	–	–	–	–	–	–	> 100	–
